# Literature values in patent publication US11160861B2, “Adjuvanting systems and water-free vaccine compositions comprising a polyI:C polynucleotide adjuvant and a lipid-based adjuvant” (priority 2015, dated 2021).
# Assays:
# [1] = variety of animal models and Phase I clinical trial in humans (Moyle 2008; Wiedemann 1991)
# murine DCs = conditions: in vitro stimulation of murine DCs, small amounts of adjuvant relative to other TLR agonists (Welters 2007)
smiles,measurement,setting,value
"CCCCCCCCCCCCCCCC(=O)N[C@@H](CSC[C@@H](COC(=O)CCCCCCCCCCCCCCC)OC(=O)CCCCCCCCCCCCCCC)C(=O)O [Pam3Cys, tripalmitoyl-S-glyceryl-cysteine]",Side effects,[1],no reported side effects
same,"Production of pro-inflammatory cytokines IL-12p40, IL-6 and TNFα",murine DCs,high levels
